Experimental data from ChEMBL document CHEMBL1201862, “PubChem BioAssay data set” (2004).
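Exposure lasted 48 hours, with cells grown in 96-well plates and compounds tested at five concentrations. Abbreviation: GI50, concentration required for 50% inhibition of growth.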 Calls of active or inactive are those of the source. No stated cut-off is given here; in the data, active = GI50 up to about 1.1 µM and inactive = higher.

What was measured:
Experiment in all cases: NCI tumour cell line growth inhibition, 48 h
EKVX = test system: EKVX
SF-295 = test system: SF-295
OVCAR-5 = test system: OVCAR-5
SW-620 = test system: SW-620
RPMI-8226 = test system: RPMI-8226
786-0 = test system: 786-0
IGROV-1 = test system: IGROV-1
OVCAR-4 = test system: OVCAR-4
UACC-257 = test system: UACC-257
A498 = test system: A498
OVCAR-3 = test system: OVCAR-3
NCI-H522 = test system: NCI-H522
Malme-3M = test system: Malme-3M
HT-29 = test system: HT-29
SNB-75 = test system: SNB-75
COLO 205 = test system: COLO 205
SK-MEL-5 = test system: SK-MEL-5
SR = test system: SR

SMILES | GI50 (EKVX) | GI50 (SF-295) | GI50 (OVCAR-5) | GI50 (SW-620) | GI50 (RPMI-8226) | GI50 (786-0) | GI50 (IGROV-1) | GI50 (OVCAR-4) | GI50 (UACC-257) | GI50 (A498) | GI50 (OVCAR-3) | GI50 (NCI-H522) | GI50 (Malme-3M) | GI50 (HT-29) | GI50 (SNB-75) | GI50 (COLO 205) | GI50 (SK-MEL-5) | GI50 (SR)
Cc1ncc(CCl)c2c1OC(C)(C)OC2 | 20.5 µM (inactive) | > 100 µM (inactive) | 22.3 µM (inactive) | 18.7 µM (inactive) | 37.2 µM (inactive) | 20.8 µM (inactive) | > 100 µM (inactive) | 15.1 µM (inactive) | 77.1 µM (inactive) | > 100 µM (inactive) | 26.1 µM (inactive) | 17 µM (inactive) | 19.2 µM (inactive) | 52.2 µM (inactive) |  |  |  | 
N=C(N)NCCCC(NCc1c2ccccc2[n+]([O-])c2ccccc12)C(=O)O (stereo unspecified) | > 100 µM (inactive) | > 100 µM (inactive) | > 100 µM (inactive) | 39.8 µM (inactive) | 30.3 µM (inactive) | 38.9 µM (inactive) | 71.9 µM (inactive) | 31.2 µM (inactive) | > 100 µM (inactive) | 98.4 µM (inactive) | > 100 µM (inactive) | 27 µM (inactive) | > 100 µM (inactive) | 37.3 µM (inactive) | 28.2 µM (inactive) | > 100 µM (inactive) | 36.4 µM (inactive) | 
CC(C)=CCC/C(C)=C/Cc1c(O)ccc2c1[nH]c1cc(O)c(C)cc12 |  |  | > 25 µM (inactive) | 13.9 µM (inactive) | 17.8 µM (inactive) | 9.48 µM (inactive) | 14.7 µM (inactive) | 3.78 µM (inactive) |  |  | 5.73 µM (inactive) | 7.96 µM (inactive) | 13.6 µM (inactive) | > 25 µM (inactive) |  | > 25 µM (inactive) | 16.6 µM (inactive) | 8.13 µM (inactive)
Cc1nc(Nc2ccc(Cl)cc2)sc1C(=O)NNc1ccc([N+](=O)[O-])cc1[N+](=O)[O-] | 14.9 µM (inactive) | 18.1 µM (inactive) | 16.3 µM (inactive) | 22 µM (inactive) | 18.2 µM (inactive) | 16.3 µM (inactive) | 20.9 µM (inactive) | 18.4 µM (inactive) | 16.4 µM (inactive) | 15.9 µM (inactive) | 19.3 µM (inactive) | 14 µM (inactive) | 20.7 µM (inactive) |  | 16.7 µM (inactive) | 19.8 µM (inactive) | 15.6 µM (inactive) | 
CC/C=C/c1cc2c(c3[nH]ccc13)[C@@H](C)CC2C.CC/C=C/c1cc2cc[nH]c2c2c1C(C)C[C@@H]2C.CCc1cc2c(c3[nH]ccc13)[C@@H](C)CC2C (stereo partly specified) | 18.4 µM (inactive) | 16.6 µM (inactive) | 19.9 µM (inactive) | 16.9 µM (inactive) |  | 17 µM (inactive) |  | 15.4 µM (inactive) | 16 µM (inactive) |  |  | 15.6 µM (inactive) | 20.2 µM (inactive) | 14.4 µM (inactive) | 10 µM (inactive) | 20.9 µM (inactive) |  | 
CCOC(=O)C(C)Sc1nnc(COc2ccccc2OC)n1-c1ccccc1 (stereo unspecified) | > 100 µM (inactive) | > 100 µM (inactive) | > 100 µM (inactive) | 19.2 µM (inactive) | 23.9 µM (inactive) | > 100 µM (inactive) | > 100 µM (inactive) | > 100 µM (inactive) | > 100 µM (inactive) | 0.268 µM (active) | > 100 µM (inactive) | 42 µM (inactive) | > 100 µM (inactive) | 75.5 µM (inactive) | > 100 µM (inactive) | > 100 µM (inactive) | > 100 µM (inactive) | 
Cc1nc(C(=O)O)c2ccccc2n1 |  | > 100 µM (inactive) | > 100 µM (inactive) | > 100 µM (inactive) | > 100 µM (inactive) | > 100 µM (inactive) | > 100 µM (inactive) |  | > 100 µM (inactive) | > 100 µM (inactive) | > 100 µM (inactive) |  | > 100 µM (inactive) | > 100 µM (inactive) | > 100 µM (inactive) | > 100 µM (inactive) | > 100 µM (inactive) | > 100 µM (inactive)
O=C1OC(CC(=O)c2ccc(Cl)c(Cl)c2)C(Cl)=C1Cl (stereo unspecified) | > 100 µM (inactive) | > 100 µM (inactive) | > 100 µM (inactive) | > 100 µM (inactive) | > 100 µM (inactive) | > 100 µM (inactive) | > 100 µM (inactive) | > 100 µM (inactive) | > 100 µM (inactive) | 31.2 µM (inactive) | > 100 µM (inactive) | 22.5 µM (inactive) | > 100 µM (inactive) | > 100 µM (inactive) | > 100 µM (inactive) | > 100 µM (inactive) | > 100 µM (inactive) | 
Nn1c(-c2ccccc2Cl)nc2ccccc2c1=O | > 100 µM (inactive) | > 100 µM (inactive) | > 100 µM (inactive) | > 100 µM (inactive) | > 100 µM (inactive) | > 100 µM (inactive) | > 100 µM (inactive) | > 100 µM (inactive) | > 100 µM (inactive) | > 100 µM (inactive) | > 100 µM (inactive) | > 100 µM (inactive) | 83.8 µM (inactive) | > 100 µM (inactive) | > 100 µM (inactive) | > 100 µM (inactive) | > 100 µM (inactive) | 
CCCCCCCC(=O)OCC1OC(n2cc(F)c(=O)[nH]c2=O)C(N)C(OC(=O)CCCCCCC)C1O (stereo unspecified) | 19.1 µM (inactive) | 17.5 µM (inactive) |  | 18.4 µM (inactive) | 23.2 µM (inactive) | 19.4 µM (inactive) | 20.3 µM (inactive) | 15.2 µM (inactive) | 17.8 µM (inactive) | 20.3 µM (inactive) | 20.8 µM (inactive) | 14.5 µM (inactive) | 17.5 µM (inactive) | 19.3 µM (inactive) | 15 µM (inactive) | 18.5 µM (inactive) | 10.5 µM (inactive) | 
CC(=O)OCc1ncccc1C(OC(C)=O)OC(C)=O | > 100 µM (inactive) | > 100 µM (inactive) | > 100 µM (inactive) | > 100 µM (inactive) |  | > 100 µM (inactive) | > 100 µM (inactive) | > 100 µM (inactive) | > 100 µM (inactive) | > 100 µM (inactive) | > 100 µM (inactive) | > 100 µM (inactive) | > 100 µM (inactive) | > 100 µM (inactive) | > 100 µM (inactive) | > 100 µM (inactive) | > 100 µM (inactive) | > 100 µM (inactive)
[O-][S+](Cc1cc2c(cc1Br)OCO2)c1ccccc1 (stereo unspecified) | > 100 µM (inactive) | > 100 µM (inactive) | > 100 µM (inactive) | 15.4 µM (inactive) | 24.8 µM (inactive) | 39.1 µM (inactive) | 39.4 µM (inactive) | 67.6 µM (inactive) | 51.4 µM (inactive) | > 100 µM (inactive) | 35.3 µM (inactive) | 21.6 µM (inactive) | 49.1 µM (inactive) | 34 µM (inactive) | > 100 µM (inactive) | 34.2 µM (inactive) | 61.5 µM (inactive) | 
CCN(CC)C1CC(O[C@H]2C[C@](O)(C(=O)CO)Cc3c(O)c4c(c(O)c32)C(=O)c2c(OC)cccc2C4=O)OC(C)C1O (stereo partly specified) | 0.082 µM (active) | 0.0512 µM (active) | 0.12 µM (active) | < 0.0219 µM (active) | 0.0513 µM (active) | 0.0588 µM (active) | 0.0859 µM (active) | 0.0546 µM (active) | 0.0951 µM (active) | 0.0236 µM (active) | 0.126 µM (active) | < 0.0256 µM (active) | 0.0653 µM (active) | < 0.0252 µM (active) | 0.028 µM (active) | 0.0387 µM (active) | 0.0508 µM (active) | 
Cc1nc(-c2ccccc2)cc2c1c(=O)oc1ccccc12 | > 100 µM (inactive) | > 100 µM (inactive) | > 100 µM (inactive) | > 100 µM (inactive) | > 100 µM (inactive) | > 100 µM (inactive) | > 100 µM (inactive) | > 100 µM (inactive) | > 100 µM (inactive) |  | > 100 µM (inactive) | > 100 µM (inactive) | > 100 µM (inactive) | > 100 µM (inactive) | 83.4 µM (inactive) | > 100 µM (inactive) | > 100 µM (inactive) | > 100 µM (inactive)
CN(C)CCN1CCc2c([nH]c3ccccc23)C1c1cccnc1 (stereo unspecified) | > 100 µM (inactive) | > 100 µM (inactive) | > 100 µM (inactive) | > 100 µM (inactive) | > 100 µM (inactive) | > 100 µM (inactive) | > 100 µM (inactive) | > 100 µM (inactive) | > 100 µM (inactive) | > 100 µM (inactive) | > 100 µM (inactive) | > 100 µM (inactive) |  | > 100 µM (inactive) | 61.1 µM (inactive) |  | > 100 µM (inactive) | > 100 µM (inactive)
CC1CCC2[C@@H](C)COC3O[C@]4(C)CCC1C32OO4 (stereo partly specified) | > 100 µM (inactive) | > 100 µM (inactive) | > 100 µM (inactive) | > 100 µM (inactive) |  | > 100 µM (inactive) | > 100 µM (inactive) | > 100 µM (inactive) | > 100 µM (inactive) | > 100 µM (inactive) | > 100 µM (inactive) | > 100 µM (inactive) | > 100 µM (inactive) | > 100 µM (inactive) | 91.6 µM (inactive) | > 100 µM (inactive) | > 100 µM (inactive) | 
COc1ccc2cc3n(c(=O)c2c1)CCc1c-3cc(OC)c(OC)c1OC | > 100 µM (inactive) | > 100 µM (inactive) | > 100 µM (inactive) | > 100 µM (inactive) | > 100 µM (inactive) | > 100 µM (inactive) | > 100 µM (inactive) | > 100 µM (inactive) | > 100 µM (inactive) |  | > 100 µM (inactive) | > 100 µM (inactive) | > 100 µM (inactive) | > 100 µM (inactive) | 34.7 µM (inactive) | > 100 µM (inactive) | > 100 µM (inactive) | > 100 µM (inactive)
